# Data reported in publication PMC11995724, “Antibiotic target discovery by integrated phenotypic and activity-based profiling of electrophilic fragments” (Cell chemical biology, 2025).
# Assay: in vitro
# Conditions: human, hek293t cells
row,SMILES,"viability at 48 h, 25 µM [%]"
1,"CCN(CC)C(=O)/C(C#N)=C/c1cc(O)c(O)c([N+](=O)[O-])c1 [9-B04, (2E)-2-cyano-3-(3,4-dihydroxy-5-nitrophenyl)-N,N-diethylprop-2-enamide]",105
2,"Cc1c(Cl)cccc1NC(=O)C(C#N)=Cc1cccs1 [9-B05, N-(3-chloro-2-methylphenyl)-2-cyano-3-(thiophen-2-yl)prop-2-enamide]",108
3,"N#CC(=Cc1cccc(-c2ccncc2)c1)C(=O)NCc1ccco1 [9-B06, 2-cyano-N-[(furan-2-yl)methyl]-3-[3-(pyridin-4-yl)phenyl]prop-2-enamide]",68.2
4,"N#CC(=Cc1c[nH]c2ccccc12)C(=O)Nc1ccc2c(c1)OCCO2 [9-B07, 2-cyano-N-(2,3-dihydro-1,4-benzodioxin-6-yl)-3-(1H-indol-3-yl)prop-2-enamide]",101
5,"N#CC(=Cc1ccc(-c2ccccc2)cc1)C(=O)N1CCCC1 [9-B08, 3-{[1,1'-biphenyl]-4-yl}-2-(pyrrolidine-1-carbonyl)prop-2-enenitrile]",71.2
6,"C=CCNC(=O)C(C#N)=Cc1cccc(O)c1 [9-B09, 2-cyano-3-(3-hydroxyphenyl)-N-(prop-2-en-1-yl)prop-2-enamide]",113
7,"N#CC(=Cc1c[nH]c2ccccc12)C(=O)Nc1ccccn1 [9-B10, 2-cyano-3-(1H-indol-3-yl)-N-(pyridin-2-yl)prop-2-enamide]",111
8,"N#CC(=Cc1ccco1)C(=O)NCCc1ccc(F)cc1F [9-B11, 2-cyano-N-[2-(2,4-difluorophenyl)ethyl]-3-(furan-2-yl)prop-2-enamide]",122
9,"N#CC(=Cc1csc(COc2ccccc2)n1)C(N)=O [9-B12, 2-cyano-3-[2-(phenoxymethyl)-1,3-thiazol-4-yl]prop-2-enamide]",116
10,"CCCCNC(=O)C(C#N)=Cc1ccsc1 [9-B13, N-butyl-2-cyano-3-(thiophen-3-yl)prop-2-enamide]",102
11,"CNC(=O)C(C#N)=Cc1ccc(F)cc1 [9-B14, 2-cyano-3-(4-fluorophenyl)-N-methylprop-2-enamide]",109
12,"CC(C)c1nc(C=C(C#N)C(=O)NC2CCCCC2)c2ccccn12 [9-B15, 2-cyano-N-cyclohexyl-3-[3-(propan-2-yl)imidazo[1,5-a]pyridin-1-yl]prop-2-enamide]",103
13,"CC(C)NC(=O)C(C#N)=Cc1ccc(-c2ccc([N+](=O)[O-])cc2)s1 [9-B16, 2-cyano-3-[5-(4-nitrophenyl)thiophen-2-yl]-N-(propan-2-yl)prop-2-enamide]",99.6
14,"Cc1cc(C=C(C#N)C(=O)Nc2cnn(C)c2)c(C)n1C1CCCCC1 [9-B17, 2-cyano-3-(1-cyclohexyl-2,5-dimethyl-1H-pyrrol-3-yl)-N-(1-methyl-1H-pyrazol-4-yl)prop-2-enamide]",96.1
15,"Cc1nc2cc(NC(=O)C(C#N)=Cc3ccco3)ccc2n1C [9-B18, 2-cyano-N-(1,2-dimethyl-1H-1,3-benzodiazol-5-yl)-3-(furan-2-yl)prop-2-enamide]",106
16,"Cc1ccc(NC(=O)C(C#N)=CC2=Cc3ccccc3OC2)cc1 [9-B19, 3-(2H-chromen-3-yl)-2-cyano-N-(4-methylphenyl)prop-2-enamide]",119
17,"N#CC(=Cc1ccco1)C(=O)NCc1nc(-c2ccncc2)cs1 [9-B20, 2-cyano-3-(furan-2-yl)-N-{[4-(pyridin-4-yl)-1,3-thiazol-2-yl]methyl}prop-2-enamide]",109
18,"CN(C)c1ccc(C=C(C#N)C(=O)Nc2ccc3c(c2)OCCO3)cc1 [9-B21, 2-cyano-N-(2,3-dihydro-1,4-benzodioxin-6-yl)-3-[4-(dimethylamino)phenyl]prop-2-enamide]",110
19,"COc1ccc(C=C(C#N)C(=O)Nc2cc(C)ccc2C)cc1Cl [9-B22, 3-(3-chloro-4-methoxyphenyl)-2-cyano-N-(2,5-dimethylphenyl)prop-2-enamide]",92.9
20,"CCCCNC(=O)C(C#N)=Cc1cc(C)cc(C)c1 [9-C03, N-butyl-2-cyano-3-(3,5-dimethylphenyl)prop-2-enamide]",122
21,"COc1cc(C)c(C=C(C#N)C(=O)Nc2ccc(C)cc2)cc1C(C)C [9-C04, 2-cyano-3-[4-methoxy-2-methyl-5-(propan-2-yl)phenyl]-N-(4-methylphenyl)prop-2-enamide]",127
22,"CCCNC(=O)C(C#N)=Cc1ccc(-n2cncn2)c(C)c1 [9-C05, 2-cyano-3-[3-methyl-4-(1H-1,2,4-triazol-1-yl)phenyl]-N-propylprop-2-enamide]",96
23,"CCOc1ccc(C=C(C#N)C(=O)Nc2nccs2)cc1 [9-C06, 2-cyano-3-(4-ethoxyphenyl)-N-(1,3-thiazol-2-yl)prop-2-enamide]",94.3
24,"CC(C)NC(=O)C(C#N)=Cc1cccc(Cl)c1Cl [9-C07, 2-cyano-3-(2,3-dichlorophenyl)-N-(propan-2-yl)prop-2-enamide]",39.7
25,"COc1ccc(NC(=O)C(C#N)=Cc2cccc(O)c2)cc1Cl [9-C08, N-(3-chloro-4-methoxyphenyl)-2-cyano-3-(3-hydroxyphenyl)prop-2-enamide]",102

row,SMILES,"viability at 48 h, 25 µM [%]"
1,"CC(C)NC(=O)C(C#N)=Cc1ccc(Cl)cc1 [9-C09, 3-(4-chlorophenyl)-2-cyano-N-(propan-2-yl)prop-2-enamide]",86.7
2,"C#CCOc1ccccc1C=C(C#N)C(=O)Nc1ccccc1F [9-C10, 2-cyano-N-(2-fluorophenyl)-3-[2-(prop-2-yn-1-yloxy)phenyl]prop-2-enamide]",80.4
3,"CCCCNC(=O)C(C#N)=Cc1cc(C)ccc1C [9-C11, N-butyl-2-cyano-3-(2,5-dimethylphenyl)prop-2-enamide]",93.1
4,"C=CCNC(=O)C(C#N)=Cc1ccc(-c2ccc(F)cc2)s1 [9-C12, 2-cyano-3-[5-(4-fluorophenyl)thiophen-2-yl]-N-(prop-2-en-1-yl)prop-2-enamide]",111
5,"CC(C)NC(=O)C(C#N)=Cc1ccc2ccccc2c1 [9-C13, 2-cyano-3-(naphthalen-2-yl)-N-(propan-2-yl)prop-2-enamide]",77.9
6,"N#CC(=Cc1ccc(SC(F)(F)F)cc1)C(=O)NC1CC1 [9-C14, 2-cyano-N-cyclopropyl-3-{4-[(trifluoromethyl)sulfanyl]phenyl}prop-2-enamide]",55.5
7,"CC(C)NC(=O)C(C#N)=Cc1ccccc1OC(C)C [9-C15, 2-cyano-N-(propan-2-yl)-3-[2-(propan-2-yloxy)phenyl]prop-2-enamide]",112
8,"N#CC(=Cc1csc(C2CC2)n1)C(=O)Nc1ccccc1C(=O)O [9-C16, 2-[2-cyano-3-(2-cyclopropyl-1,3-thiazol-4-yl)prop-2-enamido]benzoic acid]",92.9
9,"N#CC(=Cc1ccsc1)C(=O)Nc1nccs1 [9-C17, 2-cyano-N-(1,3-thiazol-2-yl)-3-(thiophen-3-yl)prop-2-enamide]",121
10,"N#CC(=Cc1sc2ccccc2c1Cl)C(=O)NC1CC1 [9-C18, 3-(3-chloro-1-benzothiophen-2-yl)-2-cyano-N-cyclopropylprop-2-enamide]",86.4
11,"N#CC(=Cc1cccc(O)c1)C(=O)Nc1ccc(SC(F)F)cc1 [9-C19, 2-cyano-N-{4-[(difluoromethyl)sulfanyl]phenyl}-3-(3-hydroxyphenyl)prop-2-enamide]",99.7
12,"COc1cccc(NC(=O)C(C#N)=Cc2c[nH]c(-c3ccccc3)n2)c1 [9-C20, 2-cyano-N-(3-methoxyphenyl)-3-(2-phenyl-1H-imidazol-4-yl)prop-2-enamide]",108
13,"N#CC(=Cc1ccc(F)cc1)C(=O)Nc1cccc2ncccc12 [9-C21, 2-cyano-3-(4-fluorophenyl)-N-(quinolin-5-yl)prop-2-enamide]",118
14,"Cc1ccc(C=C(C#N)C(=O)Nc2ccccc2Cl)s1 [9-C22, N-(2-chlorophenyl)-2-cyano-3-(5-methylthiophen-2-yl)prop-2-enamide]",107
15,"Cc1nn(C)c(C)c1C=C(C#N)C(=O)Nc1ccc2c(c1)OCCO2 [9-D03, 2-cyano-N-(2,3-dihydro-1,4-benzodioxin-6-yl)-3-(1,3,5-trimethyl-1H-pyrazol-4-yl)prop-2-enamide]",112
16,"CCOc1cc2c(cc1C=C(C#N)C(N)=O)OC(C)C2 (stereo not shown) [9-D04, 2-cyano-3-(5-ethoxy-2-methyl-2,3-dihydro-1-benzofuran-6-yl)prop-2-enamide]",128
17,"Cc1ccc(NC(=O)C(C#N)=Cc2ccccc2OC(F)F)cc1 [9-D05, 2-cyano-3-[2-(difluoromethoxy)phenyl]-N-(4-methylphenyl)prop-2-enamide]",96.9
18,"CCOC=C(C#N)C(=O)N1CCN(S(=O)(=O)c2cc[nH]n2)CC1 [9-D06, 3-ethoxy-2-[4-(1H-pyrazole-3-sulfonyl)piperazine-1-carbonyl]prop-2-enenitrile]",110
19,"COc1ccc2cc(C=C(C#N)C(=O)NCc3ccccc3)ccc2c1 [9-D07, N-benzyl-2-cyano-3-(6-methoxynaphthalen-2-yl)prop-2-enamide]",108
20,"N#CC1=C(N2CCOCC2)SC(c2ccc([N+](=O)[O-])cc2)NC1=O (stereo not shown) [9-D08, 6-(morpholin-4-yl)-2-(4-nitrophenyl)-4-oxo-3,4-dihydro-2H-1,3-thiazine-5-carbonitrile]",112
21,"N#CC(=Cc1ccc(Cl)cc1)C(=O)Nc1cccc2c1C(=O)NC2=O [9-D09, 3-(4-chlorophenyl)-2-cyano-N-(1,3-dioxo-2,3-dihydro-1H-isoindol-4-yl)prop-2-enamide]",105
22,"CN(C)c1ccc(C=C(C#N)C(=O)NCc2ccco2)cc1 [9-D10, 2-cyano-3-[4-(dimethylamino)phenyl]-N-[(furan-2-yl)methyl]prop-2-enamide]",101
23,"CCCn1c(C)cc(C=C(C#N)C(=O)N2CCCCC2)c1C [9-D11, 3-(2,5-dimethyl-1-propyl-1H-pyrrol-3-yl)-2-(piperidine-1-carbonyl)prop-2-enenitrile]",106
24,"Cc1ccc(C)c(NC(=O)C(C#N)=Cc2ccc(N3CCCCC3)o2)c1 [9-D12, 2-cyano-N-(2,5-dimethylphenyl)-3-[5-(piperidin-1-yl)furan-2-yl]prop-2-enamide]",69.5
